The target of this test is T1, chicken gizzard smooth muscle myosin subfragment-1 chemically crosslinked to cardiac or skeletal actin (Gallus gallus, UniProt P10587).
T1 construct: chicken gizzard smooth muscle myosin subfragment-1; from tissue; host or cells: chicken gizzard
The test can be described thus: Smooth muscle myosin ATPase dose response assay (pyruvate kinase/horseradish peroxidase/pyruvate oxidase-coupled, amplex red fluorescence). It is filed as biochemical. To be noted: read-out: IC50 Arithmetic Mean. In short, it runs like this:
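EDC/NHS-crosslinked S1–actin, amount set per prep by rate titration. Buffer: 12 mM K-PIPES pH 7.00 (22° C), 100 mM KCl, 2 mM MgCl2, 0.15 mM ATP, 0.1 mM PEP, 2 mM KPi, 0.1 mM amplex red. Read ex 480/em 615 nm; IC50 = midpoint, 4-param Hill fit.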

What is called IC50 is the concentration needed to halve the response being measured.

T1 sequence (P02607 2-151): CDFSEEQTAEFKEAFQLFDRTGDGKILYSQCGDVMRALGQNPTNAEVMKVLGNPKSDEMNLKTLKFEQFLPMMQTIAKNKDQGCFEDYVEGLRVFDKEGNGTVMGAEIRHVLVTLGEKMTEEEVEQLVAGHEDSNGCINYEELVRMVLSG
T1 sequence (P10587 84-789): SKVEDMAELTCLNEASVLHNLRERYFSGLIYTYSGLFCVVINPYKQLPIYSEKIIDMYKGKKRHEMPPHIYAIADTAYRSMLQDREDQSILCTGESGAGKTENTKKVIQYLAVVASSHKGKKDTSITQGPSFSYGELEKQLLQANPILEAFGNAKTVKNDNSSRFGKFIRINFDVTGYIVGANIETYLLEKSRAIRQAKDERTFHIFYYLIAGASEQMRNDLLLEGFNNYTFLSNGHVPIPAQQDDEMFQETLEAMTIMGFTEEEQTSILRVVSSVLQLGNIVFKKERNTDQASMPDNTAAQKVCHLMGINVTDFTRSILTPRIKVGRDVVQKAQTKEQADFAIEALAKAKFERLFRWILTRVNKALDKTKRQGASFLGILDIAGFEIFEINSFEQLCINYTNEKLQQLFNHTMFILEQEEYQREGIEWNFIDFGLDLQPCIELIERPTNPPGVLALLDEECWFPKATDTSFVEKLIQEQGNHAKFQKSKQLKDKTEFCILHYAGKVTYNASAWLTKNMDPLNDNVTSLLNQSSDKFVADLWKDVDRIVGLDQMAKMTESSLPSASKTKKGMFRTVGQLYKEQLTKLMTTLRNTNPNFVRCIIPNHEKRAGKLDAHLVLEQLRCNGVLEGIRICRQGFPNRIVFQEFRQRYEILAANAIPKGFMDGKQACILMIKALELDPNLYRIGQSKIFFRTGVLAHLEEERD

Regarding `N#Cc1ccccc1-c1ccc(C(=O)NC[C@H]2CCCN2C(=O)[C@@H](N)CO)c(NCCc2cccc(F)c2)n1` [N-{[(2R)-1-((2S)-2-amino-3-hydroxypropanoyl)pyrrolidin-2-yl]methyl}(6-(2-cyanophenyl)-2-{[2-(3-fluorophenyl)ethyl]amino}(3-pyridyl))carboxamide], the IC50 turned out to be 173 nM. With `COC[C@H](N)C(=O)N1CCC[C@@H]1CNC(=O)c1ccc(-c2ccccc2C#N)nc1NCCc1cccc(F)c1` [N-{[(2R)-1-((2S)-2-amino-3-methoxypropanoyl)pyrrolidin-2-yl]methyl}(6-(2-cyanophenyl)-2-{[2-(3-fluorophenyl)ethyl]amino}(3-pyridyl))carboxamide], the IC50 was determined as 193 nM. The result for `C[C@H](N)C(=O)N1CCCC[C@@H]1CNC(=O)c1ccc(-c2ccccc2C#N)nc1NCCc1cccc(F)c1` [N-{[(2R)-1-((2S)-2-aminopropanoyl)(2-piperidyl)]methyl}(6-(2-cyanophenyl)-2-{[2-(3-fluorophenyl)ethyl]amino}(3-pyridyl))carboxamide] reads 52 nM. Regarding `C[C@H](N)C(=O)N1CCC[C@@H]1CNC(=O)c1cc(F)c(-c2cnn(C)c2)nc1NCCc1cccc(F)c1` [N-{[(2R)-1-((2S)-2-aminopropanoyl)pyrrolidin-2-yl]methyl}(5-fluoro-2-{[2-(3-fluorophenyl)ethyl]amino}-6-(1-methylpyrazol-4-yl)(3-pyridyl))carboxamide], the IC50 was determined as 99 nM. In the case of `C[C@H](N)C(=O)N1CCCC1CNC(=O)c1cc(F)c(-c2cc[nH]n2)nc1NCCc1cccc(F)c1` (stereo partly drawn) [N-{[(2R)-1-((2S)-2-aminopropanoyl)pyrrolidin-2-yl]methyl}(5-fluoro-2-{[2-(3-fluorophenyl)ethyl]amino}-6-pyrazol-3-yl(3-pyridyl))carboxamide], the IC50 was 314 nM.

Consider `C[C@H](N)C(=O)N1CCC[C@@H]1CNC(=O)c1ccc(-c2ccccc2C#N)nc1NCCc1cccc(F)c1` [N-{[(2R)-1-((2S)-2-aminopropanoyl)pyrrolidin-2-yl]methyl}(6-(2-cyanophenyl)-2-{[2-(3-fluorophenyl)ethyl]amino}(3-pyridyl))carboxamide], for which the IC50 worked out at 53 nM. The result for `CNC(=O)N1CCC[C@@H]1CNC(=O)c1ccc(-c2ccccc2C#N)nc1NCCc1cccc(F)c1` [N-{[(2R)-1-(N-methylcarbamoyl)pyrrolidin-2-yl]methyl}(6-(2-cyanophenyl)-2-{[2-(3-fluorophenyl)ethyl]amino}(3-pyridyl))carboxamide] reads 307 nM. To `CCS(=O)(=O)N1CCNC[C@@H]1CNC(=O)c1ccc(-c2ccccc2C#N)nc1NCCc1cccc(F)c1` [N-{[(2R)-1-(ethylsulfonyl)piperazin-2-yl]methyl}(6-(2-cyanophenyl)-2-{[2-(3-fluorophenyl)ethyl]amino}(3-pyridyl))carboxamide] belongs 16800 nM; to `CS(=O)(=O)N1CC[C@@H]1CNC(=O)c1ccc(-c2ccccc2C#N)nc1NCCc1cccc(F)c1` [N-{[(2R)-1-(methylsulfonyl)azetidin-2-yl]methyl}(6-(2-cyanophenyl)-2-{[2-(3-fluorophenyl)ethyl]amino}(3-pyridyl))carboxamide], 1520 nM; to `CS(=O)(=O)N1CCC[C@@H]1CNC(=O)c1ccc(-c2ccccc2C#N)nc1NCCc1cccc(F)c1` [N-{[(2R)-1-(methylsulfonyl)pyrrolidin-2-yl]methyl}(6-(2-cyanophenyl)-2-{[2-(3-fluorophenyl)ethyl]amino}(3-pyridyl))carboxamide], 1450 nM. On to `N#Cc1ccccc1-c1ccc(C(=O)NC[C@@H]2CN(CCN)CC(=O)N2)c(NCCc2cccc(F)c2)n1` [N-{[(2R)-4-(2-aminoethyl)-6-oxopiperazin-2-yl]methyl}(6-(2-cyanophenyl)-2-{[2-(3-fluorophenyl)ethyl]amino}(3-pyridyl))carboxamide], for which the IC50 was 8470 nM. As to `N#Cc1ccccc1-c1ccc(C(=O)NC[C@@H]2CN(CCCN)CC(=O)N2)c(NCCc2cccc(F)c2)n1` [N-{[(2R)-4-(3-aminopropyl)-6-oxopiperazin-2-yl]methyl}(6-(2-cyanophenyl)-2-{[2-(3-fluorophenyl)ethyl]amino}(3-pyridyl))carboxamide], the IC50 is 4520 nM.

Regarding `N#Cc1ccccc1-c1ccc(C(=O)NC[C@@H]2CCCCN2C(=O)CN)c(NCCc2cccc(F)c2)n1` [N-{[(2S)-1-(2-aminoacetyl)(2-piperidyl)]methyl}(6-(2-cyanophenyl)-2-{[2-(3-fluorophenyl)ethyl]amino}(3-pyridyl))carboxamide], the IC50 worked out at 74 nM. To `CN1CCN(C(=O)CN)[C@@H](CNC(=O)c2ccc(-c3ccccc3C#N)nc2NCCc2cccc(F)c2)C1` [N-{[(2S)-1-(2-aminoacetyl)-4-methylpiperazin-2-yl]methyl}(6-(2-cyanophenyl)-2-{[2-(3-fluorophenyl)ethyl]amino}(3-pyridyl))carboxamide] belongs 1280 nM; to `N#Cc1ccccc1-c1ccc(C(=O)NC[C@@H]2CCCN2C(=O)CN)c(NCCc2cccc(F)c2)n1` [N-{[(2S)-1-(2-aminoacetyl)pyrrolidin-2-yl]methyl}(6-(2-cyanophenyl)-2-{[2-(3-fluorophenyl)ethyl]amino}(3-pyridyl))carboxamide], 995 nM.

Regarding `N#Cc1ccccc1-c1ccc(C(=O)NC[C@@H]2CCC(=O)N2CCN)c(NCCc2cccc(F)c2)n1` [N-{[(2S)-1-(2-aminoethyl)-5-oxopyrrolidin-2-yl]methyl}(6-(2-cyanophenyl)-2-{[2-(3-fluorophenyl)ethyl]amino}(3-pyridyl))carboxamide], the IC50 turned out to be 917 nM. Take `N#Cc1ccccc1-c1ccc(C(=O)NC[C@@H]2CCCCN2C(=O)CCN)c(NCCc2cccc(F)c2)n1` [N-{[(2S)-1-(3-aminopropanoyl)(2-piperidyl)]methyl}(6-(2-cyanophenyl)-2-{[2-(3-fluorophenyl)ethyl]amino}(3-pyridyl))carboxamide]: the IC50 was found to be 109 nM. `CN1CCN(C(=O)CCN)[C@@H](CNC(=O)c2ccc(-c3ccccc3C#N)nc2NCCc2cccc(F)c2)C1` [N-{[(2S)-1-(3-aminopropanoyl)-4-methylpiperazin-2-yl]methyl}(6-(2-cyanophenyl)-2-{[2-(3-fluorophenyl)ethyl]amino}(3-pyridyl))carboxamide]: the IC50 was found to be 2390 nM. The result for `N#Cc1ccccc1-c1ccc(C(=O)NC[C@@H]2CCCN2C(=O)CCN)c(NCCc2cccc(F)c2)n1` [N-{[(2S)-1-(3-aminopropanoyl)pyrrolidin-2-yl]methyl}(6-(2-cyanophenyl)-2-{[2-(3-fluorophenyl)ethyl]amino}(3-pyridyl))carboxamide] reads 1860 nM. Turning to `N#Cc1ccccc1-c1ccc(C(=O)NC[C@@H]2CCC(=O)N2CCCN)c(NCCc2cccc(F)c2)n1` [N-{[(2S)-1-(3-aminopropyl)-5-oxopyrrolidin-2-yl]methyl}(6-(2-cyanophenyl)-2-{[2-(3-fluorophenyl)ethyl]amino}(3-pyridyl))carboxamide], the IC50 amounted to 431 nM. To `CN1CCN(C(=O)CCCN)[C@@H](CNC(=O)c2ccc(-c3ccccc3C#N)nc2NCCc2cccc(F)c2)C1` [N-{[(2S)-1-(4-aminobutanoyl)-4-methylpiperazin-2-yl]methyl}(6-(2-cyanophenyl)-2-{[2-(3-fluorophenyl)ethyl]amino}(3-pyridyl))carboxamide] belongs 2320 nM; to `N#Cc1ccccc1-c1ccc(C(=O)NC[C@@H]2CCCN2C(=O)CCCN)c(NCCc2cccc(F)c2)n1` [N-{[(2S)-1-(4-aminobutanoyl)pyrrolidin-2-yl]methyl}(6-(2-cyanophenyl)-2-{[2-(3-fluorophenyl)ethyl]amino}(3-pyridyl))carboxamide], 1270 nM; to `CS(=O)(=O)N1CCCC[C@H]1CNC(=O)c1ccc(-c2ccccc2C#N)nc1NCCc1cccc(F)c1` [N-{[(2S)-1-(methylsulfonyl)(2-piperidyl)]methyl}(6-(2-cyanophenyl)-2-{[2-(3-fluorophenyl)ethyl]amino}(3-pyridyl))carboxamide], 1630 nM. As to `CN1CCN(C(=O)CN)C[C@@H]1CNC(=O)c1ccc(-c2ccccc2C#N)nc1NCCc1cccc(F)c1` [N-{[(2S)-4-(2-aminoacetyl)-1-methylpiperazin-2-yl]methyl}(6-(2-cyanophenyl)-2-{[2-(3-fluorophenyl)ethyl]amino}(3-pyridyl))carboxamide], the IC50 was determined as 6970 nM. In the case of `N#Cc1ccccc1-c1ccc(C(=O)NC[C@H]2CN(C(=O)CN)CCN2)c(NCCc2cccc(F)c2)n1` [N-{[(2S)-4-(2-aminoacetyl)piperazin-2-yl]methyl}(6-(2-cyanophenyl)-2-{[2-(3-fluorophenyl)ethyl]amino}(3-pyridyl))carboxamide], the IC50 amounted to 8880 nM.

On to `N#Cc1ccccc1-c1ccc(C(=O)NC[C@H]2CN(CCN)CC(=O)N2)c(NCCc2cccc(F)c2)n1` [N-{[(2S)-4-(2-aminoethyl)-6-oxopiperazin-2-yl]methyl}(6-(2-cyanophenyl)-2-{[2-(3-fluorophenyl)ethyl]amino}(3-pyridyl))carboxamide], for which the IC50 came out at 623 nM. The result for `CN1CCN(C(=O)CCN)C[C@@H]1CNC(=O)c1ccc(-c2ccccc2C#N)nc1NCCc1cccc(F)c1` [N-{[(2S)-4-(3-aminopropanoyl)-1-methylpiperazin-2-yl]methyl}(6-(2-cyanophenyl)-2-{[2-(3-fluorophenyl)ethyl]amino}(3-pyridyl))carboxamide] reads 17000 nM; that for `N#Cc1ccccc1-c1ccc(C(=O)NC[C@H]2CN(C(=O)CCN)CCN2)c(NCCc2cccc(F)c2)n1` [N-{[(2S)-4-(3-aminopropanoyl)piperazin-2-yl]methyl}(6-(2-cyanophenyl)-2-{[2-(3-fluorophenyl)ethyl]amino}(3-pyridyl))carboxamide], 11200 nM; that for `N#Cc1ccccc1-c1ccc(C(=O)NC[C@H]2CN(CCCN)CC(=O)N2)c(NCCc2cccc(F)c2)n1` [N-{[(2S)-4-(3-aminopropyl)-6-oxopiperazin-2-yl]methyl}(6-(2-cyanophenyl)-2-{[2-(3-fluorophenyl)ethyl]amino}(3-pyridyl))carboxamide], 2810 nM.
